Results published in patent publication US10954503B2, “Antidotes for factor Xa inhibitors and methods of using the same” (Alexion Pharmaceuticals, Inc., priority 2007, dated 2021).

Tests used:
[1] = in vivo; cited from earlier work
[2] = system: thrombin generation; assay: Thrombin generation assay in platelet poor or platelet rich plasma (RFU); type: biochemical, human; conditions: betrixaban 250 nM; all rfVIIa concentrations tested
[3] = system: aPTT of human plasma; assay: aPTT clotting assay with MLA Electra 800 automatic coagulation timer; type: biochemical

Structure (SMILES)	reported therapeutic concentration [1]	inhibition of fXa by betrixaban in the presence of rfVIIa [2]	aPTT ([3]; 300 nM Betrixaban alone)	aPTT ([3]; 400 nM Betrixaban alone)	extension of aPTT ([3]; 400 nM betrixaban)
O=C(NC[C@H]1CN(c2ccc(N3CCOCC3=O)cc2)C(=O)O1)c1ccc(Cl)s1 [rivaroxaban]	approximately 600 nM	–	–	–	–
COc1ccc(NC(=O)c2ccc(C(=N)N(C)C)cc2)c(C(=O)Nc2ccc(Cl)cn2)c1 [betrixaban, [2-({4-[(dimethylamino)iminomethyl]phenyl}carbonylamino)-5-methoxyphenyl]-N-(5-chloro(2-pyridyl))carboxamide]	–	about 75%	61.8 s	66.3 s	more than two folds
